Assays:
COLO205 (colon) = assay: Inhibition of cell proliferation, CellTiter-Glo, COLO205; assay type: cell-based; details: Homo sapiens, COLO 205, 72 h
Outline: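 Exponentially growing COLO205 cells in medium with 10% FBS were plated below 2000 cells/well at 37 °C, 5% CO2. Untreated wells served as controls.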

[1] = system: NCI-H929 (multiple myeloma); assay: Inhibition of cell proliferation, CellTiter-Glo, NCI-H929; assay type: cell-based; details: Homo sapiens, 72 h
Outline: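 Cells were grown in medium with 10% FBS at 37° C, 5% CO2. Cell number was read as CellTiter-Glo luminescence (cellular ATP), with untreated wells as control.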

[2] = molecular target: T1, human IGF-1R (NIH-3T3 cells over expressing human IGF-1R) (Homo sapiens, UniProt P08069); assay: IGF-1R cellular autophosphorylation (DELFIA); assay type: cell-based; details: IGF-1 stimulated
T1 construct: expressed in transfected cells; host or cells: NIH-3T3 (mouse fibroblasts)
T1 sequence (P08069 31-1367): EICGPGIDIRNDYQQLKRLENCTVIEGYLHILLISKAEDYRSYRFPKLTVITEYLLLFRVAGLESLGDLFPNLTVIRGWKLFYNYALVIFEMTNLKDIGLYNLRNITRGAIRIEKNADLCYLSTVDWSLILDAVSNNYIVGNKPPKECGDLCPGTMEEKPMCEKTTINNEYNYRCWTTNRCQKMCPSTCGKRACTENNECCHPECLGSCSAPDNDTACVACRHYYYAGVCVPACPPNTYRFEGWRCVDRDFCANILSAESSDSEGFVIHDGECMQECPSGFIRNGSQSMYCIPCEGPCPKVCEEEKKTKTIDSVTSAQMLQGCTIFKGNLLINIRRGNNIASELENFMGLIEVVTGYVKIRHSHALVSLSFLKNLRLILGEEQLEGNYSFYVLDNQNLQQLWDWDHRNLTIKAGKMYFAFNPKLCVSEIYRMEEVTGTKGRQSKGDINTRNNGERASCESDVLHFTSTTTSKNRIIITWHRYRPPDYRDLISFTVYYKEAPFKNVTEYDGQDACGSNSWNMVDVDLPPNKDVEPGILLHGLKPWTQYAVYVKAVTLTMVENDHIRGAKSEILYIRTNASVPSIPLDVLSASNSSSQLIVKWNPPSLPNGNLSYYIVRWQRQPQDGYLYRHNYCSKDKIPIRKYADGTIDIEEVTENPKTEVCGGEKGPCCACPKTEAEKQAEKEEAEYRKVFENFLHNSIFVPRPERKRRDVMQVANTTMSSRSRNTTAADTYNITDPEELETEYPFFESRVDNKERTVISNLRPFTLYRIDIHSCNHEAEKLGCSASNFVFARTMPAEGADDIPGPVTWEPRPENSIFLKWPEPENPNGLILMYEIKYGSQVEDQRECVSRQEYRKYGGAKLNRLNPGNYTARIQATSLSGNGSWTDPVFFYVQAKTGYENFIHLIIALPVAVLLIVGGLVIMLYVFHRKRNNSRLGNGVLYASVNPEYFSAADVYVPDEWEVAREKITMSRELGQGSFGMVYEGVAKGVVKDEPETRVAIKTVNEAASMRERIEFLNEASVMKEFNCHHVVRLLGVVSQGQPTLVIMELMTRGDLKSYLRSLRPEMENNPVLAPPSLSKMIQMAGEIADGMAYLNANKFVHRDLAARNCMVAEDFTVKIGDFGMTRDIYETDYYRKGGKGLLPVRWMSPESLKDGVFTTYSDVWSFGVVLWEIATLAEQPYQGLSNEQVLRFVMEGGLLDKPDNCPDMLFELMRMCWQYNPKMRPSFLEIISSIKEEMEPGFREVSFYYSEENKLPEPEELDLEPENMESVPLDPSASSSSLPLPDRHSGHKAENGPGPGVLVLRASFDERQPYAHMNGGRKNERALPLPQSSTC
Outline: (§1)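 Receptor-overexpressing NIH-3T3, 10% FBS, 37 °C; cpd 30 uM–1.5 nM × 2 h; stim IGF-1 30 ng/mL (IGF-1R) or insulin 3 ug/mL (IR), 15 min; lysate DELFIA, Eu anti-pTyr; % of stimulated signal.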

[3] = molecular target: T2, IR (NIH-3T3 cells over expressing human IGF-1R or IR) (Homo sapiens, UniProt P06213); assay: IR cellular autophosphorylation (DELFIA); assay type: cell-based; details: NIH-3T3 cells over expressing IR, insulin stimulated
T2 construct: expressed in transfected cells; host or cells: NIH-3T3 (mouse fibroblasts)
T2 sequence (P06213 28-1382): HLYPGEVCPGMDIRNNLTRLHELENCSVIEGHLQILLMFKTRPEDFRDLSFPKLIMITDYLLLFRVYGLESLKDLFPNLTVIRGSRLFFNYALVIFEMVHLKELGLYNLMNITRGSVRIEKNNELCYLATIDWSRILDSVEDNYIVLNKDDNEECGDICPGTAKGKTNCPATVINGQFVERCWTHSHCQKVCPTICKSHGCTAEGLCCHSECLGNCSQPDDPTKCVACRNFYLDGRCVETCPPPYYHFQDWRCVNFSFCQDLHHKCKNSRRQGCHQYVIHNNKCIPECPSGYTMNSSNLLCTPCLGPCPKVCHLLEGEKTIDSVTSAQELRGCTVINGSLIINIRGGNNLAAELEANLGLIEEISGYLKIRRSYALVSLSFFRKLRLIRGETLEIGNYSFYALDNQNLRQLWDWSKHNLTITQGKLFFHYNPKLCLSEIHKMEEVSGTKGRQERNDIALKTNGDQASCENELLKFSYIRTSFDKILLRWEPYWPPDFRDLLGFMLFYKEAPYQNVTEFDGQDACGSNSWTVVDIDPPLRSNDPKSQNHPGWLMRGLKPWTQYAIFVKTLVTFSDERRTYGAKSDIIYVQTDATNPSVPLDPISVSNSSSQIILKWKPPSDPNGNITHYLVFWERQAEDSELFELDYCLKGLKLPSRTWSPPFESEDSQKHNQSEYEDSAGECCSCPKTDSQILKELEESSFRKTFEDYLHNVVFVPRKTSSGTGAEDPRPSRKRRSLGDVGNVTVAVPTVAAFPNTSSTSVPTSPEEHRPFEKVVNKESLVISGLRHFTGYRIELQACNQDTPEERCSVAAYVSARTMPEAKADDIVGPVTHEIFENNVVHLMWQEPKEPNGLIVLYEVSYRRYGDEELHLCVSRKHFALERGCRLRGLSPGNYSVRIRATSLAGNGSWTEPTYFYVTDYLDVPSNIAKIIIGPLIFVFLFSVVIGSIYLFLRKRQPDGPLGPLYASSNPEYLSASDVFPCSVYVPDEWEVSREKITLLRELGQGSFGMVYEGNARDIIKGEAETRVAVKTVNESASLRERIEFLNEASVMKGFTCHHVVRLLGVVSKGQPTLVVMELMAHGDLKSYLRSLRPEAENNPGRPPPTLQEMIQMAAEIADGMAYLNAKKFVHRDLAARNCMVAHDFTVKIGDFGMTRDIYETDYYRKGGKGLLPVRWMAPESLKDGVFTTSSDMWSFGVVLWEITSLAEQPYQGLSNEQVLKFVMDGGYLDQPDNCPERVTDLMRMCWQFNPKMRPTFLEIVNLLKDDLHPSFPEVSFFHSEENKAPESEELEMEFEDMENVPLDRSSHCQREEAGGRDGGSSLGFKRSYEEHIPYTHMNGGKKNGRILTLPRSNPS
Outline: as §1

[4] = system: Colo-205 tumors (colon carcinoma cell line); assay: In vivo efficacy, Colo-205 tumor bearing mice; set-up: species or system mouse
Experimental: In addition to the LISN xenograft efficacy studies, Example 57 has also been assessed in vivo in two other mouse models of cancer, including: Colo-205 tumor bearing mice (colon carcinoma cell line) and BT474 tumor bearing mice (breast carcinoma cell line). Forty female nude mice bearing Colo-205 tumors (average tumor size of 200 mm3) were randomized into five groups of eight mice and dosed with either vehicle (20% SBE pH3.5) or Example 57 at 100, 30, 10 mg/kg QD or 30 mg/kg BID for 21 days. The groups of mice dosed with the higher doses of Example 57 (100 mg/kg QD and 30 mg/kg BID) lost greater than 20% body weight within 10 days of dosing so were taken off the study and allowed to recover. […] The higher doses of 100 mg/kg QDx10 and 30 mg/kg BIDx10 achieved 72 and 49% tumor growth inhibition respectively.

| Structure (SMILES) | IC50 (COLO205 (colon)) [nM] | IC50 [1] [nM] | IC50 [2] [nM] | IC50 [3] [nM] | tumor growth inhibition ([4]; Colo-205, 10 mg/kg QDx21) [%] | tumor growth inhibition ([4]; Colo-205, 30 mg/kg BIDx10) [%] | tumor growth inhibition ([4]; Colo-205, 30 mg/kg QDx21) [%] | body weight lost ([4]; Colo-205, 100 mg/kg QD and 30 mg/kg BID, within 10 days of dosing) | tumor growth inhibition ([4]; Colo-205, 100 mg/kg QDx10) [%] | body weight loss ([4]; Colo-205, 30 and 10 mg/kg QDx21) |
| --- | --- | --- | --- | --- | --- | --- | --- | --- | --- | --- |
| COc1cc(N2CCC(N3CCN(CCF)CC3)CC2)ccc1Nc1nccc(-c2c(-c3cccc(C(=O)Nc4c(F)cccc4F)c3)nc3ccccn23)n1 [Example 57, N-(2,6-difluorophenyl)-3-[3-(2-{[4-{4-[4-(2-fluoroethyl)-1-piperazinyl]-1-piperidinyl}-2-(methyloxy)phenyl]amino}-4-pyrimidinyl)imidazo[1,2-a]pyridin-2-yl]benzamide] | 250 to 1000 | < 250 | < 100 | < 100 | 17 | 49 | 40 | greater than 20% | 72 | no body weight loss |
| COc1cc(N2CCC(N3CCCCC3)CC2)ccc1Nc1nccc(-c2c(-c3cccc(C(=O)Nc4c(F)cccc4F)c3)nc3ccccn23)n1 [Example 22, 3-[3-(2-{[4-(1,4′-bipiperidin-1′-yl)-2-(methyloxy)phenyl]amino}-4-pyrimidinyl)imidazo[1,2-a]pyridin-2-yl]-N-(2,6-difluorophenyl)benzamide] | 250 to 1000 | < 250 | < 100 | < 100 | – | – | – | – | – | – |

Source: patent publication US20100216779A1 (GLAXOSMITHKLINE LLC, priority 2007, published 2010)
